{
  "source": "patent US20080260722A1",
  "about": "“Method for High Efficiency Survival/Proliferation of Human Embyonic Stem Cells and Human Embryo Survival in Culture” (The Johns Hopkins University Johns Hopkins Technology …, priority 2004, published 2008)",
  "molecules": {"B1": {"name": "brain derived neurotrophic factor (protein, UniProt P23560 19-247, looked up)", "Neurotrophic factor BDNF …": "APMKEANIRGQGGLAYPGVRTHGTLESVNGPKAGSRGLTSLADTFEHVIEELLDEDQKVRPNEENNKDADLYTSRVMLSSQVPLEPPLLFLLEEYKNYLDAANMSMRVRRHSDPARRGELSVCDSISEWVTAADKKTAVDMSGGTVTVLEKVPVSKGQLKQYFYETKCNPMGYTKEGCRGIDKRHWNSQCRTTQSYVRALTMDSKKRIGWRFIRIDTSCVCTLTIKRGR", "notes": "TRK ligand, neurotrophin purchased from Peprotech"}, "B2": {"name": "neurotrophin 3 (protein, UniProt P20783 139-257, looked up)", "Neurotrophin-3": "YAEHKSHRGEYSVCDSESLWVTDKSSAIDIRGHQVTVLGEIKTGNSPVKQYFYETRCKEARPVKNGCRGIDDKHWNSQCKTSQTYVRALTSENNKLVGWRWIRIDTSCVCALSRKIGRT", "notes": "as for B1"}, "B3": {"name": "neurotrophin 4 (protein, UniProt P34130 81-210, looked up)", "Neurotrophin-4": "GVSETAPASRRGELAVCDAVSGWVTDRRTAVDLRGREVEVLGEVPAAGGSPLRQYFFETRCKADNAEEGGPGAGGGGCRGVDRRHWVSECKAKQSYVRALTADAQGRVGWRWIRIDTACVCTLLSRTGRA", "notes": "as for B1"}},
  "key": {"[1]": {"test_system": "hES cells", "experiment": "low-density survival assay in MEF-CM with TRK inhibitors", "type": "cell-based, human", "settings": "increasing inhibitor concentrations, versus DMSO vehicle", "quoted_text": "TRK signaling and survival can be blocked by pharmacological inhibition; TRK inhibitors were added to hES cells plated with MEF-CM in the low-density survival assay; hES cells were exposed to increasing concentrations of a GW441756, K252A, or vehicle (DMSO).\nHuman ES cell lines H1 and H9 were cultured as described by Thornson and colleagues^15 in high glucose DMEM supplemented with L-glutanine, non-essential amino acids, serum replacement (Invitrogen) and 4 ng/ml basic Fibroblast growth factor (Invitrogen). Mouse embryo fibroblasts (MEFs) (Specialty Media). were plated at 5-7×10^6 cells/ml. To prepare single cell suspensions of hES cells, the cells were washed twice with PBS, then incubated in 0.05% trypsin/EDTA (InVitrogen) for 5 minutes at 37° C. The cells were triturated with a 5-ml pipette until a single cell suspension was obtained. […] For low-density survival assays, trypsinized cells were counted using a hemocytometer and 500 cells were plated in each well of 96-well plate containing MEFs or coated with Matrigel (BD Biosciences). […] Individual hES cells or hES cell colonies were counted manually on an inverted microscope. […]\nTo test this prediction, hES cell survival was measured using the low density survival assay in the presence or absence of two different TRK inhibitors, GW441756 and K252a^17-19."}, "[2]": {"test_system": "TRKs", "settings": "cited from earlier work"}, "[3]": {"test_system": "hES cells", "experiment": "low-density survival assay in NTs without bFGF with pathway inhibitors", "type": "cell-based, human", "settings": "single cells at low density in NTs, no bFGF, increasing inhibitor concentrations", "experimental": "FIG. 8. PI-3K activity is required for hES cell survival; a. […] NTs have differential effects on AKT and MEK1/2 phosphorylation; hES cells were grown in the presence or absence of NTs (but without bFGF) and cell lysates probed with antibodies to phospho-AKT or phospho-MEK1/2; in the absence of NTs, a weak phospho-AKT band is observed; upon stimulation of hES cells with NTs a stronger band is observed; the intensity of the bands were compared to the total level of AKT and to a loading control (Beta-tubulin); in contrast no change in the level of phospho-MEK1/2 was observed by comparison with the controls.\nHuman ES cell lines H1 and H9 were cultured as described by Thornson and colleagues^15 in high glucose DMEM supplemented with L-glutanine, non-essential amino acids, serum replacement (Invitrogen) and 4 ng/ml basic Fibroblast growth factor (Invitrogen). Mouse embryo fibroblasts (MEFs) (Specialty Media). were plated at 5-7×10^6 cells/ml. To prepare single cell suspensions of hES cells, the cells were washed twice with PBS, then incubated in 0.05% trypsin/EDTA (InVitrogen) for 5 minutes at 37° C. […] For low-density survival assays, trypsinized cells were counted using a hemocytometer and 500 cells were plated in each well of 96-well plate containing MEFs or coated with Matrigel (BD Biosciences). […] Individual hES cells or hES cell colonies were counted manually on an inverted microscope. […]"}, "[4]": {"test_system": "hES cells", "experiment": "low-density survival assay with individual neurotrophins on MEFs or Matrigel", "type": "cell-based, human", "settings": "500 cells/well on MEFs or Matrigel, 0.01-100 ng/ml, 4-5 days", "from_the_text": "FIG. 4. Individual neurotrophins have dose-dependent effects on hES cell survival; a. Effect of NTs on hES cell survival at low-density on MEFs. hES cells were trypsinized and plated at low density (500 cells per well) on MEFs in 96-well plates in the presence of NT3, BDNF, NT4, NGF or hES medium lacking added growth factor; After 4-5 days, the colonies (comprised of approximately 7-11 cells) were fixed and stained for alkaline phosphatase; b. […] NTs (BDNF, NT4 and NT3) also have statistically significant differences between concentrations of 0.01-100 ng/ml at p<0.05; c. Phase contrast images (at 4×) of morphology of hES cell colonies observed on MEFs or Matrigel™ in the low-density survival assay.\nHuman ES cell lines H1 and H9 were cultured as described by Thornson and colleagues^15 in high glucose DMEM supplemented with L-glutanine, non-essential amino acids, serum replacement (Invitrogen) and 4 ng/ml basic Fibroblast growth factor (Invitrogen). Mouse embryo fibroblasts (MEFs) (Specialty Media). were plated at 5-7×10^6 cells/ml. To prepare single cell suspensions of hES cells, the cells were washed twice with PBS, then incubated in 0.05% trypsin/EDTA (InVitrogen) for 5 minutes at 37° C. The cells were triturated with a 5-ml pipette until a single cell suspension was obtained. Trypsin inhibitor (InVitrogen) was added and the cell suspension filtered through a […] (Fisher Scientific) to remove clumps and MEFs. For clonal survival assays, single hES cells were diluted to clonal density and plated into a well of a 96-well plate containing MEFs. For low-density survival assays, trypsinized cells were counted using a hemocytometer and 500 cells were plated in each well of 96-well plate containing MEFs or coated with Matrigel (BD Biosciences). To visualize hES colonies, cultures were fixed in 4% para-formaldehyde in PBS for 30 minutes, washed once in PBS, once in distilled H2O, then stained for alkaline phosphatase activity as described previously^25. Individual hES cells or hES cell colonies were counted manually on an inverted microscope. NGF, BDNF, NT3 and NT4 were purchased from Peprotech. The TRK inhibitors GW441756 (Sigma) and K252A (Calbiochem), PI-3K inhibitor, MAPK inhibitors, STAT3 inhibitor and control peptides (all from Calbiochem) were prepared according to the manufacturer's instructions. For the antibody blocking experiments, antibodies to NGF, NT3, NT4 and BDNF as well as a control antibody were obtained from Promega. Antibodies were added to culture medium at a concentration of 20 ug/ml. Following culture, the cultures were fixed and stained for alkaline phosphatase activity as described above. Each experiment consisted of at least four replicates per treatment and each experiment was repeated at least three times. […]"}},
  "data": [
    {"molecule": "Cn1cc(/C=C2\\C(=O)Nc3cccnc32)c2ccccc21", "note": "[GW441756]", "values": [
      {"measurement": "effect on hES cell survival", "setting": "[1]", "result": "statistically-significant and dose-dependent effects on hES cell survival"},
      {"measurement": "selectivity for TRKs over many kinases including c-Src, VEGFR2, Raf and CDK1", "setting": "[2]", "result": "10-fold, or in some cases 100-fold"}
    ]},
    {"molecule": "COC(=O)[C@@]1(O)C[C@H]2O[C@]1(C)n1c3ccccc3c3c4c(c5c6ccccc6n2c5c31)C(=O)NC4", "note": "[K252a]", "values": [
      {"measurement": "effect on hES cell survival", "setting": "[1]", "result": "statistically-significant and dose-dependent effects on hES cell survival"}
    ]},
    {"molecule": "COc1cccc(-c2cc(=O)c3ccccc3o2)c1N", "note": "[PD98059]", "values": [
      {"measurement": "effect on hES cell survival", "setting": "[3]", "result": "no effect on hES cell survival"}
    ]},
    {"molecule": "CS/C(N)=C(C#N)/C(C#N)=C(\\N)SC", "note": "[UO124]", "values": [
      {"measurement": "effect on hES cell survival", "setting": "[3]", "result": "no effect on hES cell survival"}
    ]},
    {"molecule": "nerve growth factors [NGF]", "values": [
      {"measurement": "effect on hES cell survival", "setting": "[4]", "result": "slight increase in hES cell survival"}
    ]},
    {"molecule": "B1", "values": [
      {"measurement": "effect on hES cell survival", "setting": "[4]", "result": "potent, dose dependent effects on hES cell survival"}
    ]},
    {"molecule": "B2", "values": [
      {"measurement": "effect on hES cell survival", "setting": "[4]", "result": "potent, dose dependent effects on hES cell survival"}
    ]},
    {"molecule": "B3", "values": [
      {"measurement": "effect on hES cell survival", "setting": "[4]", "result": "potent, dose dependent effects on hES cell survival"}
    ]}
  ]
}
